Laboratory results taken from patent publication US20260234128A1, “CRYSTALLINE FORMS OF 2-(4-(4-(AMINOMETHYL)-1-OXO-1,2- DIHYDROPHTHALAZIN-6-YL)-1-METHYL-1H- PYRAZOL-5-YL)-4-CHLORO-6-CYCLOPROPOXY-3-FLUOROBENZONITRILE” (MIRATI THERAPEUTICS, INC., priority 2023, published 2026).
Counter-ions that a name gives are not always drawn.

How the values were obtained:
[1] = Intrinsic dissolution rate and drug in capsule dissolution in FaSSGF and FaSSIF; format: physicochemical
Method: The IDR rate was calculated using the slope of the linear curve divided by the surface area of tablet (0.5 cm^2). […] 0.6 mL liquid was removed with a syringe at each time point and filtered. The concentration of filtrates was analyzed by HPLC.

[2] = Manufacturability and physical stability (compressibility, tabletability, compatibility, XRD after compaction); format: physicochemical
Method: The XRD patterns were compared with the uncompressed compound. X-ray powder diffractograms were obtained on a wide-angle X-ray diffraction instrument (X'Pert Pro; PANalytical Inc., West Borough, MA) using Cu Ká radiation. The voltage and current applied were 45 kV and 40 mA, respectively. Each measurement was performed with a step size of 0.0167° in the 2-theta range of 5-35° and a dwell time of 0.4 s.

[3] = Dynamic vapor sorption (DVS) hygroscopicity; format: physicochemical; details: for form change after DVS evaluation: sample after DVS
Method: The hygroscopicity of HCl Form A was also evaluated by conducting dynamic vapor sorption experiments.
The hygroscopicity of HCl Form B was also evaluated by conducting dynamic vapor sorption experiments.
The hygroscopicity of HCl Form E was also evaluated by conducting dynamic vapor sorption experiments.

[4] = Pharmacokinetics after oral capsule administration in male beagle dogs pre-treated with pentagastrin or famotidine; format: in vivo
Method: The substances were filled into Empty HPMC Capsules after correcting for potency and administered to dogs pre-treated with either pentagastrin or famotidine along with 40 mL of water. Pentagastrin enhances gastric secretions whereas famotidine neutralizes gastric sections. Therefore, pentagastrin and famotidine pre-treatments were used to simulate the impact of gastric pH on bioavailability and reduce the variability in gastric pH between dogs.
Plasma samples were collected at pre-defined intervals and analyzed for the concentration of Compound 1. The plasma concentration versus time data was analyzed by non-compartmental approaches using Win Nonlin software program to estimate PK parameters such as Cmax, Tmax, AUC0-t and AUC0-inf.

[5] = Competitive slurry experiments (relative stability of crystal forms); format: physicochemical
Excerpt: Pattern A was observed under certain conditions during competitive slurry experiments. Pattern A was confirmed to be racemate by chiral HPLC analysis.

[6] = Excipient compatibility (binary mixtures, total impurity by HPLC); format: physicochemical
Excerpt: Binary mixtures of samples were created by mixing the substance and the excipients (1:10 Compound to Excipients for fillers and 1:1 for all other excipients) using a mortar and pestle and the resultant mixture was accurately weighed and transferred into sample vials. The excipients used were as follows: colloidal silicon dioxide 200, croscarmellose sodium, crospovidone XL-10, dibasic calcium phosphate (an), hydroxypropyl cellulose, lactose monohydrate, magnesium stearate, mannitol 100SD, MCC PH102, Opadry™ II, povidone K-30, pregelatinized starch 1500, sodium starch glycolate, and sodium stearyl fumarate. The sample vials were set down at 40° C./75% RH condition for 8 weeks in open condition before analyzing their impurity levels using HPLC.

[7] = 25° C. between 10% relative humidity and 90% relative humidity, hydrochloride salt

Compound: Cn1ncc(-c2ccc3c(=O)[nH]nc(CN)c3c2)c1-c1c(F)c(Cl)cc(OC2CC2)c1C#N [HCl Form B, 2-(4-(4-(aminomethyl)-1-oxo-1,2-dihydrophthalazin-6-yl)-1-methyl-1H-pyrazol-5-yl)-4-chloro-6-cyclopropoxy-3-fluorobenzonitrile hydrochloride salt]
- dissolution rate in intestinal media ([1]; 37° C., 50 rpm, USP Type II): slightly faster dissolution rate than Free Base Form A
- dissolution in gastric media ([1]; 37° C., 50 rpm, USP Type II, hydrochloride salt): common ion effect slowing dissolution
- compatibility (tensile strength vs porosity) ([2]; at high pressures): good
- compressibility (porosity vs compaction pressure) ([2]; at high pressures): good
- tabletability (tensile strength vs compaction pressure) ([2]; at high pressures): good
- phase stability by XRD after compression ([2]; high compaction pressure (300 MPa)): loss of crystallinity was observed
- water uptake (DVS isotherm) [3, 7]: approximately 1.3%
- Hygroscopicity (25° C./80% RH), class in words [3]: slightly
- Hygroscopicity (25° C./80% RH) ([3]; hydrochloride salt): 1.3%
- form change after DVS evaluation [3]: No form change was observed

Compound: Cn1ncc(-c2ccc3c(=O)[nH]nc(CN)c3c2)c1-c1c(F)c(Cl)cc(OC2CC2)c1C#N [HCl salt, 2-(4-(4-(aminomethyl)-1-oxo-1,2-dihydrophthalazin-6-yl)-1-methyl-1H-pyrazol-5-yl)-4-chloro-6-cyclopropoxy-3-fluorobenzonitrile hydrochloride salt]
- variability of plasma exposure ([4]; pentagastrin-treated dogs, oral 100 mg/dog, ascribed to common ion effect in the gastric media): high variability

Compound: Cn1ncc(-c2ccc3c(=O)[nH]nc(CN)c3c2)c1-c1c(F)c(Cl)cc(OC2CC2)c1C#N [HCl Form E, 2-(4-(4-(aminomethyl)-1-oxo-1,2-dihydrophthalazin-6-yl)-1-methyl-1H-pyrazol-5-yl)-4-chloro-6-cyclopropoxy-3-fluorobenzonitrile hydrochloride salt]
- Crystal Form ([5]; H2O (starting with Type E only) at 25° C., 4 d): Form B
- Crystal Form ([5]; H2O (starting with Type E only) at 25° C., 8 d): Form B
- water uptake (DVS isotherm) ([3]; 25° C. between 0% relative humidity and 80% relative humidity): approximately 2.56%
- Hygroscopicity (25° C./80% RH), class in words [3]: slightly
- Hygroscopicity (25° C./80% RH) ([3]; hydrochloride salt): 2.56%
- form change after DVS evaluation [3]: No form change was observed

Compound: Cn1ncc(-c2ccc3c(=O)[nH]nc(CN)c3c2)c1-c1c(F)c(Cl)cc(OC2CC2)c1C#N [HCl Form A, 2-(4-(4-(aminomethyl)-1-oxo-1,2-dihydrophthalazin-6-yl)-1-methyl-1H-pyrazol-5-yl)-4-chloro-6-cyclopropoxy-3-fluorobenzonitrile hydrochloride salt]
- stability relative to the other HCl form ([4]; conclusion drawn from the dog study results): less stable than HCl Form B
- water uptake (DVS isotherm) [3, 7]: approximately 1.43%
- Hygroscopicity (25° C./80% RH), class in words [3]: slightly
- Hygroscopicity (25° C./80% RH) ([3]; hydrochloride salt): 1.43%
- form change after DVS evaluation [3]: No form change was observed

Compound: Cn1ncc(-c2ccc3c(=O)[nH]nc(CN)c3c2)c1-c1c(F)c(Cl)cc(OC2CC2)c1C#N [amorphous HCl salt, 2-(4-(4-(aminomethyl)-1-oxo-1,2-dihydrophthalazin-6-yl)-1-methyl-1H-pyrazol-5-yl)-4-chloro-6-cyclopropoxy-3-fluorobenzonitrile]
- Crystal Form ([5]; EtOH/H2O (40:60 v/v) at 25° C., 1d (a clear solution was obtained before precipitation)): Pattern A

Compound: Cn1ncc(-c2ccc3c(=O)[nH]nc(CN)c3c2)c1-c1c(F)c(Cl)cc(OC2CC2)c1C#N [Free Base Form A, 2-(4-(4-(aminomethyl)-1-oxo-1,2-dihydrophthalazin-6-yl)-1-methyl-1H-pyrazol-5-yl)-4-chloro-6-cyclopropoxy-3-fluorobenzonitrile]
- dissolution in gastric media ([1]; 37° C., 50 rpm, USP Type II): faster dissolution in gastric media
- super saturation in intestinal fluid ([1]; pH shifted from gastric to intestinal after 30 minutes): able to maintain super saturation in intestinal fluid
- compatibility with excipients (total impurity content) ([6]; binary mixtures, 40° C./75% RH, 8 weeks, open condition, HPLC): good compatibility with excipients
- sensitivity to individual excipients ([6]; colloidal silicon dioxide and lactose monohydrate, 40° C./75% RH, 8 weeks, open): more sensitive to colloidal silicon dioxide and lactose monohydrate than HCl Form B
- risk of chemical stability ([6]; with excipients, manageable by choice of excipients): slightly higher
- exposure ([4]; oral 100 mg/dog, when the particle size was normalized): equivalent exposure to HCl salt
